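48-hour exposure; five concentrations; linearly interpolated endpoints. GI50 is the concentration that inhibits growth by half.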 The source made the active and inactive calls. Cut-off read from the data, not from the text of the source: active = GI50 up to about 1.1 µM and inactive = higher.

Some test systems named below: BT-549; COLO 205; HCC 2998; HCT-116; HCT-15; HOP-92; K562; KM12; M14; Malme-3M; NCI-H23; NCI-H460; OVCAR-5; SF-295; SK-MEL-28; SK-MEL-5; SF-539; 786-0; MDA-MB-231.
Holding throughout (test): NCI tumour cell line growth inhibition, 48 h

For the compound `Cc1[nH]c(=O)nc(S)c1C(=O)Nc1cccc2cc3ccccc3cc12`, the GI50 in the experiment with BT-549 is > 100 µM (inactive); in the experiment with COLO 205 it was > 100 µM (inactive); in the experiment on HCC 2998, > 100 µM (inactive); in the experiment with HCT-116, > 100 µM (inactive); in the experiment with HCT-15, more than 100 µM; with HOP-92, > 100 µM (inactive). The GI50 with K562, in the experiment on KM12, in the experiment on M14, in the experiment with Malme-3M, with NCI-H23 and with NCI-H460 was > 100 µM (inactive) in each case. Besides, the GI50 in the experiment on OVCAR-5, in the experiment on SF-295, with SK-MEL-28 and with SK-MEL-5 was > 100 µM (inactive) each time.

`CCn1nc(C)c2c1C(=O)NC(C)C(=O)N2` (stereo unspecified): the GI50 was > 100 µM (inactive) in the experiment with BT-549; > 100 µM (inactive) in the experiment with COLO 205; > 100 µM (inactive) with HCT-116; 15.1 µM with HCT-15; > 100 µM (inactive) with HOP-92; > 10 µM (inactive) in the experiment with KM12. The GI50 in the experiment on M14, in the experiment with NCI-H23, in the experiment with NCI-H460, in the experiment on OVCAR-5, in the experiment on SF-295 and with SF-539 was > 100 µM (inactive) each time. The GI50 in the experiment on SK-MEL-28 and in the experiment on SK-MEL-5 was > 100 µM (inactive) in each case.

On to `COc1cc(OC)cc(-n2c(N)c(C#N)c3ccc([N+](=O)[O-])cc3c2=O)c1`, for which the GI50 was 19 µM (inactive) with 786-0; 31.2 µM (inactive) in the experiment with BT-549; > 100 µM (inactive) with COLO 205; 84.1 µM (inactive) with HCC 2998; 93.5 µM (inactive) in the experiment with HCT-116; more than 100 µM in the experiment on HCT-15. Also, the GI50 with HOP-92 is 19.1 µM (inactive); in the experiment on K562, 22.6 µM (inactive); with KM12, > 100 µM (inactive); in the experiment with MDA-MB-231 it was 37.5 µM (inactive); in the experiment on NCI-H23 it was 36.4 µM (inactive); with NCI-H460, 30.8 µM (inactive). Besides, the figures for the GI50 in the experiment with SK-MEL-28 and in the experiment on SK-MEL-5 were 43.1 µM (inactive) and 30.3 µM (inactive), respectively.

As for `CC(=O)N1C(C(=O)NC2CCCCC2)CSC1c1ccccc1` (stereo unspecified), the GI50 in the experiment on 786-0 is > 100 µM (inactive); with BT-549, > 100 µM (inactive); with HCC 2998 it was > 100 µM (inactive); in the experiment with HCT-116 it was > 100 µM (inactive); in the experiment with HCT-15 it was more than 100 µM; in the experiment on HOP-92, 68.2 µM (inactive). For the same compound, the GI50 with K562, with KM12, in the experiment on M14, in the experiment on Malme-3M, in the experiment on NCI-H23 and in the experiment with NCI-H460 was > 100 µM (inactive) in each case. Besides, the GI50 in the experiment on OVCAR-5, with SF-295, in the experiment with SF-539 and with SK-MEL-5 was > 100 µM (inactive) each time.

Take `O=C(O)c1c[nH]c2c(Sc3ccccc3)nccc2c1=O`: the GI50 with 786-0 was > 100 µM (inactive); in the experiment with BT-549 it was 33 µM (inactive); in the experiment on COLO 205, > 100 µM (inactive); in the experiment with HCT-116 it was > 100 µM (inactive); in the experiment with HCT-15, more than 100 µM; in the experiment with HOP-92, > 100 µM (inactive). For the same compound, the GI50 in the experiment with KM12 was 39.9 µM (inactive); in the experiment with M14, > 100 µM (inactive); with MDA-MB-231 it was > 100 µM (inactive); with NCI-H23, > 100 µM (inactive); with NCI-H460, > 100 µM (inactive); in the experiment with OVCAR-5, > 100 µM (inactive). For the same compound, the GI50 in the experiment on SF-295, in the experiment with SF-539, with SK-MEL-28 and in the experiment with SK-MEL-5 was > 100 µM (inactive) in each case.

Consider `Cc1nn(C(=O)c2ccccc2O)c2c1C(c1ccc(O)cc1)SC(=N)N2` (stereo unspecified), for which the GI50 in the experiment with 786-0 was > 2.56 µM (inactive); in the experiment with BT-549 it was > 10 µM (inactive); in the experiment on COLO 205, > 6.93 µM (inactive); in the experiment on HCC 2998, > 8.91 µM (inactive); in the experiment on HCT-116 it was 1.49 µM (inactive); in the experiment on HCT-15 it was 1.75 µM. In addition, the GI50 with K562 is 0.955 µM (active); with KM12 it was > 2.15 µM (inactive); with M14, > 2.86 µM (inactive); in the experiment with MDA-MB-231 it was > 3.18 µM (inactive); in the experiment on Malme-3M it was 0.601 µM (active); in the experiment on NCI-H23 it was 1.83 µM (inactive). The GI50 was 0.359 µM (active) with NCI-H460; > 6.35 µM (inactive) in the experiment on OVCAR-5; 1.26 µM (inactive) in the experiment with SF-295; 1.36 µM (inactive) in the experiment on SF-539; > 10 µM (inactive) in the experiment with SK-MEL-28; > 3.08 µM (inactive) in the experiment with SK-MEL-5.

As for `O=Cc1ccccc1B(O)O`, the GI50 in the experiment with 786-0 was 43.4 µM (inactive); in the experiment with BT-549 it was 15.1 µM (inactive); with COLO 205 it was 14.7 µM (inactive); in the experiment on HCT-116 it was 43.2 µM (inactive); in the experiment with HCT-15, 62.7 µM; in the experiment on K562 it was 23.1 µM (inactive). Further, the GI50 in the experiment on KM12 was > 100 µM (inactive); in the experiment on M14, > 100 µM (inactive); in the experiment on MDA-MB-231 it was 37.8 µM (inactive); with NCI-H460, > 100 µM (inactive); in the experiment with OVCAR-5, 87.5 µM (inactive); in the experiment on SF-295, > 100 µM (inactive). Besides, the GI50 in the experiment with SF-539 is > 100 µM (inactive); in the experiment with SK-MEL-28, 68.4 µM (inactive).

`O=C1OC[C@@H]2Cc3cc4c(cc3[C@H](c3ccc5c(c3)OCO5)[C@@H]12)OCO4`: the GI50 with 786-0 was > 25 µM (inactive); in the experiment on BT-549, > 25 µM (inactive); in the experiment with COLO 205, > 25 µM (inactive); in the experiment with HCC 2998 it was > 25 µM (inactive); in the experiment with HCT-116, 18.2 µM (inactive); with HCT-15, 11 µM. In addition, the GI50 was 12 µM (inactive) in the experiment with K562; > 25 µM (inactive) with KM12; > 25 µM (inactive) in the experiment with M14; 22.7 µM (inactive) in the experiment on MDA-MB-231; > 25 µM (inactive) in the experiment with Malme-3M; > 25 µM (inactive) with NCI-H23. In addition, the GI50 in the experiment with NCI-H460 is > 25 µM (inactive); with OVCAR-5, > 25 µM (inactive); in the experiment on SF-295, 24.7 µM (inactive); in the experiment on SK-MEL-28 it was > 25 µM (inactive); with SK-MEL-5, 16 µM (inactive).

Turning to `CC1=C(C(=O)NNC(=O)CC#N)CC(C(=O)NNC(=O)CC#N)=C(C)N1`, the GI50 in the experiment on 786-0 was > 100 µM (inactive); in the experiment with BT-549 it was > 100 µM (inactive); in the experiment with COLO 205, > 100 µM (inactive); with HCC 2998, > 100 µM (inactive); with HCT-116 it was > 100 µM (inactive); in the experiment on HCT-15, more than 100 µM. Further, the GI50 with HOP-92, in the experiment on KM12, in the experiment on M14, in the experiment on MDA-MB-231, in the experiment with NCI-H23 and with NCI-H460 was > 100 µM (inactive) each time. The GI50 in the experiment on OVCAR-5, in the experiment on SF-295, with SF-539, in the experiment on SK-MEL-28 and with SK-MEL-5 was > 100 µM (inactive) throughout.

Regarding `COC1C(OC(N)=O)C(O)C(Oc2ccc3c(O)c(NC(=O)c4ccc(O)c(CC=C(C)C)c4)c(=O)oc3c2C)OC1(C)C` (stereo unspecified), the GI50 is > 100 µM (inactive) with 786-0; > 100 µM (inactive) with BT-549; > 100 µM (inactive) in the experiment with COLO 205; 47.5 µM (inactive) in the experiment with HCC 2998; > 100 µM (inactive) with HCT-116; 60.5 µM with HCT-15. The GI50 is > 100 µM (inactive) in the experiment on K562; 63 µM (inactive) in the experiment with KM12; > 100 µM (inactive) in the experiment on M14; > 100 µM (inactive) in the experiment on MDA-MB-231; > 100 µM (inactive) in the experiment on Malme-3M; 62.2 µM (inactive) in the experiment with NCI-H460. Besides, the GI50 with OVCAR-5 is > 100 µM (inactive); with SF-539, > 100 µM (inactive); in the experiment on SK-MEL-28, 73.8 µM (inactive); in the experiment on SK-MEL-5, > 100 µM (inactive).

Consider `N#CCCC1(CCC#N)S(=O)(=O)OCCOS1(=O)=O`, for which the GI50 with 786-0 was 21.6 µM (inactive); with BT-549 it was 6.04 µM (inactive); in the experiment on COLO 205 it was 85.9 µM (inactive); in the experiment on HCT-116, 40.9 µM (inactive); in the experiment with HCT-15, 36.8 µM; in the experiment on KM12, 32 µM (inactive). Further, the GI50 was 56.8 µM (inactive) in the experiment on M14; 46.1 µM (inactive) in the experiment on Malme-3M; 36.1 µM (inactive) in the experiment on NCI-H23; > 100 µM (inactive) in the experiment with OVCAR-5; 8.99 µM (inactive) with SF-295; 8.34 µM (inactive) in the experiment with SF-539. Moreover, the GI50 with SK-MEL-28 is 50 µM (inactive); in the experiment with SK-MEL-5 it was 47.9 µM (inactive).

As for `CC(Nc1cc(Cl)cc(Cl)c1)c1ccncc1` (stereo unspecified), the GI50 with 786-0 is 26.2 µM (inactive); with BT-549, 22.4 µM (inactive); in the experiment on COLO 205 it was 15.6 µM (inactive); with HCC 2998 it was 16.8 µM (inactive); with HCT-116, 14.8 µM (inactive); in the experiment on HCT-15, 29.1 µM. Further, the GI50 in the experiment on K562 is 13.6 µM (inactive); in the experiment on M14, 17.6 µM (inactive); with Malme-3M, 27.7 µM (inactive); in the experiment with NCI-H23, 23.9 µM (inactive); in the experiment on NCI-H460 it was 16.9 µM (inactive); in the experiment with OVCAR-5 it was 16.2 µM (inactive). In addition, the GI50 was 18.5 µM (inactive) with SF-295, 21.8 µM (inactive) in the experiment on SF-539, 30.6 µM (inactive) in the experiment on SK-MEL-28 and 15.4 µM (inactive) with SK-MEL-5.

`O/N=C1\CC2(N3CCOCC3)CCC1(Cc1ccccc1)CC2`: the GI50 in the experiment with 786-0 is 19 µM (inactive); in the experiment on COLO 205, > 100 µM (inactive); in the experiment on HCC 2998, > 100 µM (inactive); in the experiment with HCT-116, 35.6 µM (inactive); with HCT-15, more than 100 µM; in the experiment with HOP-92 it was 28.6 µM (inactive). Besides, the GI50 in the experiment on K562 is > 100 µM (inactive); in the experiment on KM12, > 100 µM (inactive); with M14, > 100 µM (inactive); in the experiment with MDA-MB-231, 26.2 µM (inactive); in the experiment with Malme-3M it was 66.4 µM (inactive); with NCI-H23, 64.1 µM (inactive). The GI50 is > 100 µM (inactive) in the experiment with NCI-H460; > 100 µM (inactive) in the experiment with OVCAR-5; 22.9 µM (inactive) with SF-295; 23.2 µM (inactive) with SF-539; > 100 µM (inactive) with SK-MEL-28; > 100 µM (inactive) in the experiment on SK-MEL-5.

The record behind these values is ChEMBL document CHEMBL1201862, “PubChem BioAssay data set” (2004).
